Entries after “also recorded” stand apart in the source; their conditions may differ.
What was measured:
Type in all cases: cell-based
DCAF15-RBM39 binding [1] = biological target: T1, DCAF15-RBM39 binding (Homo sapiens, UniProt Q66K64); assay: MAPPIT inverse assay, RBM39 receptor fusion + DCAF15 gp130 fusion; conditions: inverse configuration; leptin; HEK293T
T1 construct: expressed in transfected cells; host or cells: HEK293T
Text: (§1) In this example, MAPPIT forward and inverse assays were developed that enable the assessment of sulfonamides to induce binding between DCAF15 and RBM39. […] The experimental setup was according to the procedure described before, using the following plasmid constructs encoding the MAPPIT receptor and gp130 fusions: in forward mode the DCAF15 bait was fused to a MAPPIT chimeric receptor construct containing the extracellular leptin receptor domain (pCLL-DCAF15) and RBM39 proteins was fused to the partial gp130 domain; in inverse mode, the DCAF15 bait was fused to the partial gp130 domain and RBM39 was fused to a MAPPIT transmembrane receptor (pCLG-RBM39). […] Cells were treated with leptin without or with the indicated dose of test compound (indisulam, tasisulam, CQS or E7820) at 24 hours after transfection. Luciferase activity was measured 24 hours after test compound treatment using the Luciferase Assay System kit (PROMEGA, Madison, Wis.) with an Ensight plate reader (PERKIN ELMER LIFE SCIENCES, Waltham, Mass.). […] Error bars represent standard deviations. […] The results shown in FIG. 12 indicate that only in the inverse assay mode sulfonamide-induced DCAF15-RBM39 binding can be observed.

DCAF15-RBM39 binding [2] = biological target: T1, DCAF15-RBM39 binding; assay: MAPPIT forward assay, DCAF15 receptor fusion + RBM39 gp130 fusion; conditions: forward configuration; leptin; HEK293T
Text: as §1

CRBN = biological target: T2, CRBN (Homo sapiens, UniProt Q96SW2); assay: CRBN inverse MAPPIT competition assay against TMP-lenalidomide hybrid ligand; conditions: 300 nM TMP-lenalidomide; leptin; HEK293T; specificity versus gp130-REM2 control (CTRL)
T2 construct: expressed in transfected cells; host or cells: HEK293T
Text: As in Example 6, HEK293T cells were transfected with a plasmid encoding E. coli Dihydrofolate Reductase (DHFR) fused to the tails of the cytoplasmic domain of a mutated leptin receptor (pCLG-DHFR), a plasmid encoding a CRBN prey fused to the gp130 cytoplasmic domain or a plasmid encoding a gp130-REM2 control fusion that can directly interact with the leptin receptor of the DHFR fusion protein, and the STAT3 responsive pXP2d2-rPAPI-luciferase reporter plasmid—using a standard transfection method, as described (Lievens, et al. “Array MAPPIT: high-throughput interactome analysis in mammalian cells.” Journal of Proteome Research 8.2 (2009): 877-886). […] Data points in FIGS. 10A-B represent the average luciferase activity of triplicate samples derived from cells treated with leptin+test compound for the REM2 control (CTRL) or cells treated with leptin+hybrid ligand+test compound (CRBN) relative to leptin (CTRL) or leptin+hybrid ligand (CRBN) only treated samples (the signals obtained in absence of added test compound for both cases is set at 100% of luciferase activity on y-axis). Error bars represent standard deviations. Curves were fit using 4-parameter nonlinear regression in […] PRISM software.

SMILES	sulfonamide-induced recruitment of RBM39 to DCAF15 (luciferase signal) (DCAF15-RBM39 binding [1])	sulfonamide-induced recruitment of RBM39 to DCAF15 (luciferase signal) (DCAF15-RBM39 binding [2])	competition with TMP-lenalidomide hybrid ligand for binding to CRBN (inhibition of luciferase signal) (CRBN)
Cc1ccc(NS(=O)(=O)c2cccc(C#N)c2)c2[nH]cc(C#N)c12 [E7820]	dose-dependent luciferase signal increase	–	–
NS(=O)(=O)c1ccc(S(=O)(=O)Nc2cccc3c(Cl)c[nH]c23)cc1 [indisulam]	dose-dependent luciferase signal increase	only in inverse mode could a dose-dependent luciferase signal increase be observed	–
Nc1cccc2c1C(=O)N(C1CCC(=O)NC1=O)C2=O (stereo not drawn) [pomalidomide]	–	–	specifically inhibit hybrid-ligand induced luciferase reporter activation in a dose-dependent manner; also recorded: competed efficiently
O=C(NS(=O)(=O)c1ccc(Br)s1)c1ccc(Cl)cc1Cl [tasisulam]	dose-dependent luciferase signal increase	–	–
Cc1nc2cccc(N)c2c(=O)n1C1CCC(=O)NC1=O (stereo not drawn) [CC-122]	–	–	specifically inhibit hybrid-ligand induced luciferase reporter activation in a dose-dependent manner; also recorded: competed efficiently
